Data set [1] can be described thus: GI S9 stability (Ex. Z), rat intestinal S9. Format: in vitro ADME. Conditions: rat intestinal S9, 1.0 mg/mL protein, 2 μM substrate, pH 7.4, read-out: GIS9 Rat T½ (per Ex. Z). An outline of the steps:
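Pooled intestinal S9 at 1.0 mg/mL protein in PBS, pH 7.4, with substrate at 2 μM final, sampled at 0–120 min and quenched in methanol/acetonitrile containing labetalol. Remaining parent quantified by LC-MS peak area ratio. Half-life from first-order exponential decline fit.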

Data set [2] deals with Human Rhinovirus 16 (HRV16) in H1-HeLa cells. The data set is described as follows: H1-HeLa HRV-CTG 384-well Assay (Ex. Y), HRV16. Format: cell-based. To be noted: Rhinovirus A, 96 h, read-out: EC50 H1-HeLa_HRV16_HRV-CTG 384-well Assay (per Ex. Y). The source says:
(§1) Example Y: H1-HeLa HRV-CTG 384-well Assay
(§2) H1-Hela cell line (ATCC, Manassas, VA, Cat #CRL-1958) was maintained in Dulbecco's […] (DMEM) (Corning, New York, NY, Cat #15-018CM) supplemented with 10% fetal bovine serum (FBS) (Hyclone, Logan, UT, Cat #SH30071-03), and 1× Penicillin-Streptomycin-L-Glutamine (Corning, New York, NY, Cat #30-009-CI). Cells were passaged 2 times per week to maintain sub-confluent densities and were used for experiments at passage 5-30. The Human Rhinovirus 1B (HRV1B) (ATCC, Manassas, VA, Cat #VR-1645) , Human Rhinovirus 14 (HRV14) (ATCC, Manassas, VA, Cat #VR-284), and Human Rhinovirus 16 (HRV16) (ATCC, Manassas, VA, Cat #BR-283) was obtained through ATCC. Viral infection was monitored by determining viability of H1-HeLa cells as described below.
(§3) Test molecules are prepared in 100% DMSO in 384-well polypropylene plates (Greiner, Monroe, NC, Cat #784201) with 8 compounds per plate in grouped replicates of 4 at 10 serially diluted concentrations (1:3). The serially diluted compounds were transferred to low dead volume Echo plates (Labcyte, Sunnyvale, CA, Cat #LP-0200).
(§4) The test compounds were spotted to 384-well assay plates (Greiner, Monroe, NC, Cat#781091) at 200 nL per well using an Echo acoustic dispenser (Labcyte, Sunnyvale, CA). H1-HeLa cells were harvested and suspended in DMEM (supplemented with 2% FBS and 1× Penicillin-Streptomycin-L-Glutamine) and seeded to the pre-spotted assay plates at 5,000 cells per well in 30 μL. HRV1B, HRV14, and HRV16 was diluted in DMEM (supplemented with 2% FBS and 1× Penicillin-Streptomycin-L-Glutamine) at 97.1 million Infectious Units (IU) per mL, 151 million IU per mL and 221 million IU per mL respectively. 10 μL of virus per well was added to the assay plates containing cells and compounds, for an MOI of 0.5, 1.0, and 0.25 respectively. The assay plates were incubated for 4 days at 37° C. and 5% CO2. At the end of incubation, Celltiter-Glo (Promega, Madison, WI, Cat #(Ga7573) was prepared. The assay plates and Celltiter-Glo reagent were equilibrated to room temperature for at least 15 minutes. 40 μL per well of Celltiter-Glo reagent was added and the plates were incubated at room temperature for 15 minutes before reading the luminescence signal on an EnVision multimode plate reader (Perkin Elmer, Waltham, MA). Rupintrivir was used as positive control and DMSO was used as negative control. Values were normalized to the positive and negative controls (as 0% and 100% replication, respectively) and data was fitted using non-linear regression analysis by Gilead's dose response tool. The EC50 value for each compound was defined as the concentration reducing viral replication by 50%.

For data set [3], the system named is Human Rhinovirus 1B (HRV1B) in H1-HeLa cells. The data set can be described thus: H1-HeLa HRV-CTG 384-well Assay (Ex. Y), HRV1B. Format: cell-based. Conditions: Rhinovirus A, 96 h, read-out: EC50 H1-HeLa_HRV1B_HRV-CTG 384-well Assay (per Ex. Y).
From the text: as §1, §2, §3, §4

Data set [4] has as its system Human Rhinovirus 14 (HRV14) in H1-HeLa cells. The data set can be described thus: H1-HeLa HRV-CTG 384-well Assay (Ex. Y), HRV14. To be noted: Rhinovirus B, 96 h, read-out: EC50 H1-HeLa_HRV14_HRV-CTG 384-well Assay (per Ex Y). It is filed as cell-based.
From the text: as §1, §2, §3, §4

[5] abbreviates: H1-HeLa cells, HRV16 MOI 0.25, 4 days, Celltiter-Glo.
Setting [6] is: H1-HeLa cells, HRV1B MOI 0.5, 4 days, Celltiter-Glo.
[7] abbreviates: H1-HeLa cells, HRV14 MOI 1.0, 4 days, Celltiter-Glo.

Among the data in patent US20240199676A1, “ANTIVIRAL COMPOUNDS AND METHODS OF MAKING AND USING THE SAME” (Gilead Sciences, Inc., priority 2022, published 2024) are half-life and EC50 values, retold here.

In general, EC50 refers to the midpoint of the concentration-response curve.

Where two headings read alike, the source gives them in different places.

On to `CC(C)C(=O)OC[C@@]1(C#N)O[C@@H](c2ccc3c(N)ncnn23)[C@H](O)[C@@H]1O` [Compound 1, ((2R,3S,4R,5S)-5-(4-aminopyrrolo[2,1-f][1,2,4]triazin-7-yl)-2-cyano-3,4-dihydroxytetrahydrofuran-2-yl)methyl isobutyrate], for which the half-life at 2 μM in data set [1] (pooled intestinal S9 fractions) amounted to 11 min. The EC50 came out at 9.31 µM in data set [2] (setting [5]), 3.05 µM in data set [3] (setting [6]) and 5.13 µM in data set [4] (setting [7]).
For `CC(C)CC(=O)OC[C@@]1(C#N)O[C@@H](c2ccc3c(N)ncnn23)[C@H](O)[C@@H]1O` [Compound 3, ((2R,3S,4R,5S)-5-(4-aminopyrrolo[2,1-f][1,2,4]triazin-7-yl)-2-cyano-3,4-dihydroxytetrahydrofuran-2-yl)methyl 3-methylbutanoate], the half-life at 2 μM in data set [1] (pooled intestinal S9 fractions) was 12 min. Further, the EC50 in data set [2] (setting [5]) turned out to be 13.2 µM; in data set [3] (setting [6]), 8.84 µM; in data set [4] (setting [7]), 9.33 µM.
Turning to `N#C[C@]1(COC(=O)C2CC2)O[C@@H](c2ccc3c(N)ncnn23)[C@H](O)[C@@H]1O` [Compound 7, ((2R,3S,4R,5S)-5-(4-aminopyrrolo[2,1-f][1,2,4]triazin-7-yl)-2-cyano-3,4-dihydroxytetrahydrofuran-2-yl)methyl cyclopropanecarboxylate], the half-life at 2 μM in data set [1] (pooled intestinal S9 fractions) was determined as 26 min. In addition, the EC50 in data set [2] (setting [5]) is 30.7 µM; in data set [3] (setting [6]), 11.4 µM; in data set [4] (setting [7]) it was 27.1 µM.
For `CC1(C(=O)OC[C@@]2(C#N)O[C@@H](c3ccc4c(N)ncnn34)[C@H](O)[C@@H]2O)CC1` [Compound 15, ((2R,3S,4R,5S)-5-(4-aminopyrrolo[2,1-f][1,2,4]triazin-7-yl)-2-cyano-3,4-dihydroxytetrahydrofuran-2-yl)methyl 1-methylcyclopropane-1-carboxylate], in data set [1] (pooled intestinal S9 fractions), the half-life at 2 μM is 23 min. Besides, the EC50 in data set [2] (setting [5]) was 31.1 µM; in data set [3] (setting [6]), 22.8 µM; in data set [4] (setting [7]) it was 50 µM.
Turning to `CCC(CC)C(=O)Nc1ncnn2c([C@@H]3O[C@](C#N)(COC(=O)C(CC)CC)[C@@H](O)[C@H]3O)ccc12` [Compound 11, ((2R,3S,4R,5S)-2-cyano-5-(4-(2-ethylbutanamido)pyrrolo[2,1-f][1,2,4]triazin-7-yl)-3,4-dihydroxytetrahydrofuran-2-yl)methyl 2-ethylbutanoate], the half-life at 2 μM in data set [1] (pooled intestinal S9 fractions) amounted to 37 min. The concentration for a half-maximal effect (EC50) in data set [2] (setting [5]), in data set [3] (setting [6]) and in data set [4] (setting [7]) was 50 µM in each case.
In the case of `CC(=O)OC[C@@]1(C#N)O[C@@H](c2ccc3c(N)ncnn23)[C@H](OC(C)=O)[C@@H]1OC(C)=O` [Compound 28, (2R,3S,4S,5S)-2-(acetoxymethyl)-5-(4-aminopyrrolo[2,1-f][1,2,4]triazin-7-yl)-2-cyanotetrahydrofuran-3,4-diyl diacetate], in data set [1] (pooled intestinal S9 fractions), the half-life at 2 μM turned out to be 5 min. Besides, the EC50 was determined as 23.9 µM in data set [2] (setting [5]), 9.45 µM in data set [3] (setting [6]) and 19.8 µM in data set [4] (setting [7]).
On to `N#C[C@]1(COC(=O)CC2CCC2)O[C@@H](c2ccc3c(N)ncnn23)[C@H](O)[C@@H]1O` [Compound 16, ((2R,3S,4R,5S)-5-(4-aminopyrrolo[2,1-f][1,2,4]triazin-7-yl)-2-cyano-3,4-dihydroxytetrahydrofuran-2-yl)methyl 2-cyclobutylacetate], for which the half-life at 2 μM in data set [1] (pooled intestinal S9 fractions) is 4 min. For the same molecule, the results for the EC50 in data set [2] (setting [5]), in data set [3] (setting [6]) and in data set [4] (setting [7]) were 7.15 µM, 3.14 µM and 6.99 µM, respectively.
As for `CCC(C)(C)C(=O)OC[C@@]1(C#N)O[C@@H](c2ccc3c(N)ncnn23)[C@H](O)[C@@H]1O` [Compound 35, ((2R,3S,4R,5S)-5-(4-aminopyrrolo[2,1-f][1,2,4]triazin-7-yl)-2-cyano-3,4-dihydroxytetrahydrofuran-2-yl)methyl 2,2-dimethylbutanoate], the half-life at 2 μM in data set [1] (pooled intestinal S9 fractions) was found to be 124 min. The EC50 was 48.2 µM in data set [2] (setting [5]), 19.2 µM in data set [3] (setting [6]) and 24.6 µM in data set [4] (setting [7]).
The corresponding values for `N#C[C@]1(COC(=O)C2CCC2)O[C@@H](c2ccc3c(N)ncnn23)[C@H](O)[C@@H]1O` [Compound 8, ((2R,3S,4R,5S)-5-(4-aminopyrrolo[2,1-f][1,2,4]triazin-7-yl)-2-cyano-3,4-dihydroxytetrahydrofuran-2-yl)methyl cyclobutanecarboxylate] are 2 min, 7.74 µM, 3.34 µM and 5.66 µM.
Take `N#C[C@]1(COC(=O)Cc2ccccc2)O[C@@H](c2ccc3c(N)ncnn23)[C@H](O)[C@@H]1O` [Compound 38, ((2R,3S,4R,5S)-5-(4-aminopyrrolo[2,1-f][1,2,4]triazin-7-yl)-2-cyano-3,4-dihydroxytetrahydrofuran-2-yl)methyl 2-phenylacetate]: the half-life at 2 μM in data set [1] is 12 min. The EC50 in data set [2] (HRV16, H1-HeLa) amounted to 8.44 µM; in data set [3] (HRV1B, H1-HeLa), 3.12 µM; in data set [4] (HRV14, H1-HeLa), 6.25 µM.
In the case of `CCC(=O)OC[C@@]1(C#N)O[C@@H](c2ccc3c(N)ncnn23)[C@H](O)[C@@H]1O` [Compound 5, ((2R,3S,4R,5S)-5-(4-aminopyrrolo[2,1-f][1,2,4]triazin-7-yl)-2-cyano-3,4-dihydroxytetrahydrofuran-2-yl)methyl propionate], the half-life at 2 μM in data set [1] (pooled intestinal S9 fractions) is 10 min. In addition, the figures for the EC50 in data set [2] (setting [5]), in data set [3] (setting [6]) and in data set [4] (setting [7]) were 9.84 µM, 8.49 µM and 10.5 µM, respectively.
For `CC(C)(C)C(=O)OC[C@@]1(C#N)O[C@@H](c2ccc3c(N)ncnn23)[C@H](O)[C@@H]1O` [Compound 10, ((2R,3S,4R,5S)-5-(4-aminopyrrolo[2,1-f][1,2,4]triazin-7-yl)-2-cyano-3,4-dihydroxytetrahydrofuran-2-yl)methyl pivalate], in that order: 53 min, 14.3 µM, 9.77 µM and 10.9 µM.
In the case of `N#C[C@]1(COC(=O)[C@H]2CCC(=O)O2)O[C@@H](c2ccc3c(N)ncnn23)[C@H](O)[C@@H]1O` [Compound 25, ((2R,3S,4R,5S)-5-(4-aminopyrrolo[2,1-f][1,2,4]triazin-7-yl)-2-cyano-3,4-dihydroxytetrahydrofuran-2-yl)methyl (R)-5-oxotetrahydrofuran-2-carboxylate], the half-life at 2 μM in data set [1] (pooled intestinal S9 fractions) is 5 min. Besides, the EC50 in data set [2] (setting [5]) was found to be 8.31 µM; in data set [3] (setting [6]), 3.13 µM; in data set [4] (setting [7]) it was 6.01 µM.
As to `Cc1ccc(C(=O)OC[C@@]2(C#N)O[C@@H](c3ccc4c(N)ncnn34)[C@H](O)[C@@H]2O)cc1` [Compound 14, ((2R,3S,4R,5S)-5-(4-aminopyrrolo[2,1-f][1,2,4]triazin-7-yl)-2-cyano-3,4-dihydroxytetrahydrofuran-2-yl)methyl 4-methylbenzoate], the half-life at 2 μM in data set [1] (pooled intestinal S9 fractions) was found to be 6 min. For the same molecule, the EC50 in data set [2] (setting [5]) stood at 23.8 µM; in data set [3] (setting [6]), 9.8 µM; in data set [4] (setting [7]), 8.17 µM.
